The results in this text go back to ChEMBL document CHEMBL1154512, “PA-824 kills nonreplicating Mycobacterium tuberculosis by intracellular NO release” (2008).

The subject of this assay is Mycobacterium tuberculosis. The experiment in a line: Bactericidal activity against Mycobacterium tuberculosis prcAB/tetR mutant after 3 days under anaerobic condition by serial dilution method. The format is functional, organism-based.

Calls of active or inactive are those of the source. The calls are words filed in the database; no cut-off is given here.

On to `O=[N+]([O-])c1cn2c(n1)OC[C@@H](OCc1ccc(OC(F)(F)F)cc1)C2` [PRETOMANID], for which the result was Active.
